# Data from patent publication US8361802B2, “Fluorescent ozone sensor” (University of Pittsburgh—Of the Commonwealth System of …, priority 2009, dated 2013).
# Experiments:
# [1] = Ozone detection method, fluorescence turn-on of sensor in aqueous buffer / cell culture media
# Method: In order to develop a fluorescent method amenable to both biological and atmospheric detection, pH 7 buffer ([PO4^3−]=5 mM) is chosen to perform the conversion of sensor 4, such as homoallyl ether, to fluorescent compound 7. A solution of sensor 4 in 5:95 MeOH/pH 7 buffer at 24° C. is exposed to ozone, incubated at 37° C. for 1 hour to facilitate β-elimination, and formation of fluorescent compound 7 is observed (signal-to-background (S/B)=Sample B (28)/Sample A (0.35)=80) (FIG. 2a). For an ozone detection method in the presence of cells, the ozonolysis reaction is performed in a mixture of pH 7 buffer and RPMI-1640 cell culture media (3:1).
# Ozone detection method. Solutions of compound 4 ([4]final=12.5 μM) in 5:95 MeOH/pH 7 buffer ([PO4^3−]=5 mM) solution (4.0 mL) were prepared, and the samples were exposed to ozone at 24° C. followed by 1 hour incubation at 37° C. before fluorescence measurement (except for the ambient air experiments). The concentration of ozone was 5 μM for these studies. Fluorescence spectra were recorded in a 1×1-cm disposable cuvette on a Jobin Yvon FluoroMax-3 spectrometer under the control of a Windows-based PC running FluorEssence software. The samples were excited at 497 nm and the emission intensities were collected at 523 nm. All spectra were corrected for emission intensity using the manufacturer supplied photomultiplier curves.
# Ozone: Solution A (5.0 μL, [compound 4 or compound 8]final=12.5 μM) was added to a mixture of MeOH/pH 7 buffer ([PO4^3−]=5 mM) (5:95) (4.0 mL), and the samples were exposed to ozone (˜5 μM) at 24° C. followed by 1 hour incubation at 37° C. before fluorescence measurement.
# [2] = Concentration dependence / sensitivity of fluorescent ozone detection; conditions: MeOH/pH 7 buffer (5:95), samples diluted 10-fold
# Method: FIG. 2B is a correlation between fluorescent intensity and ozone in 5:95 MeOH/pH 7 buffer after ten-fold dilution of original samples. The linear correlation is y=0.000900x+0.0467; R^2=0.987; average standard deviation=0.00844. The intensity continued to be linear up to 12.5 μM.
# The present invention the sensitivity of our fluorescent method for ozone detection was examined. The fluorescent intensity correlated to the concentration of ozone in the 50 nM-12.5 μM (2.4-600 ppbv) range with S/B of 2.6-310 after 10-fold dilution of the original samples (0-500 nM shown in FIG. 2B). The level of detection is 59 nM (2.9 ppbv; S/B=3) and the level of quantitation is 340 nM (16 ppbv; S/B=10).
# Concentration dependence. […] Error bars were determined from the calculated mean and standard deviation (Prism 5.0a, GraphPad Software, Inc.).
# [3] = Ozone detection in ambient (outdoor) air; conditions: 8 hours
# Method: In all cases, sensor 4=12.5 μM and all ozone assays were performed in 5:95 MeOH/pH 7 buffer. Solutions of senor 4 in 5:95 MeOH/pH 7 buffer were prepared and exposed to ambient air in various locations throughout a city on a hot, sunny day (˜32° C.) for 8 hours. A negative control was prepared in the same manner but incubated at 37° C. in a closed vial for 8 hours. […] Solutions of senor 4 ([4]final =12.5 μM) in 5:95 MeOH/pH 7 buffer ([PO4^3−]=5 mM) solution (4.0 mL) were prepared, and the samples were placed in high traffic outdoor areas for 8 hours. The samples were not exposed directly to sunlight. A negative control was prepared in the same manner but incubated at 37° C. in a closed vial for 8 hours. Following the 8 hour incubation period, the fluorescence of each sample was measured. Ozone detection in ambient air. Solution A (5.0 μL, [compound 4]final=12.5 μM) was added to a mixture of MeOH/pH 7 buffer ([PO4^3−]=5 mM) (5:95) (4.0 mL), and 4 samples were placed in 4 outdoor areas throughout University of Pittsburgh campus for 8 hours (high temperature=32.2° C.; AQI=43; PM2.5=64) on Jun. […] The samples were not exposed to direct sunlight. […] For each location, triplicate replicas were performed.
# [4] = Air pollutant specificity; conditions: acid 250 μM, metal 100 nM, 30 minutes at 37° C.
# Method: FIG. 3B illustrates Ozone specificity against other air pollutants: Sample A=no additive, Sample B=ozone, Sample C=HNO3, Sample D=H2SO4, Sample E=Pb, Sample F=Pd, Sample G=Pt. [Acid]=250 μM. [Metal]=100 nM. The acid samples were incubated in 5:95 MeOH/pure water for 30 minutes at 37° C. The metal samples were incubated in 5:95 MeOH/pH 7 buffer for 30 minutes at 37° C.
# A number of other pollutants were screened to ensure that ozone was selectively detected. Nitrogen dioxide and sulfur dioxide convert to their corresponding acids in aqueous solution so nitric acid and sulfuric acid were screened. Lead, palladium and platinum, which are known pollutants emitted from automobiles, were also screened. […]
# Acids: HNO3 or H2SO4 (10 μL of 0.1 M solution; [acid]final=250 μM) and solution A (5.0 μL, [compound 4]final=12.5 μM) were added to a mixture of MeOH/pure water solution (5:95) (4.0 mL), and the samples were incubated at 37° C. for 30 minutes before fluorescence measurement. […]
# Metals: Pb, Pd or Pt solution (40 μL of 10 μM solution; [Metal]final=100 nM) and solution A (5.0 μL, [compound 4]final=12.5 μM) were added to a mixture of MeOH/pH 7 buffer ([PO4^3−]=5 mM) (5:95) (4.0 mL), and the samples were incubated at 37° C. for 30 minutes before fluorescence measurement. […]
compound,measurement,setting,value
C=CCCOc1cc2oc3cc(=O)c(Cl)cc-3c(-c3ccccc3CO)c2cc1Cl [compound 4],"fluorescent intensity at 523 nm, Sample A (no ROS)","[1]; 12.5 μM sensor, 5:95 MeOH/pH 7 buffer, no ozone (background)",0.35 a. u.×10^5
same,"fluorescent intensity at 523 nm, Sample B (ozone)","[1]; 12.5 μM sensor, 5:95 MeOH/pH 7 buffer, ozone at 24° C. then 1 hour at 37° C.",28 a. u.×10^5
same,signal-to-background (S/B),"[1]; 5:95 MeOH/pH 7 buffer, ozone at 24° C. then 1 hour at 37° C.",80
same,signal-to-background (S/B),[1]; mixture of pH 7 buffer and RPMI-1640 cell culture media (3:1),104
same,"background signal (fluorescence intensity, λem=523 nm)",[2],0.0377×10^5
same,"ozone level correlating to S/B, based on linear regression",[3],13-22 ppb
same,S/B,[3]; 5:95 MeOH/pH 7 buffer,10-17
same,fluorescent signal with other air pollutants (species C-G),[4],none of these species C-G produced a fluorescent signal
